Test results taken from patent publication US7604978B2, “Inhibition of biofilm formation” (Sequoia Sciences, Inc., priority 2004, dated 2009).

Key:
E. coli JM109 = assay: Biofilm inhibition by asiatic acid; assay type: cell-based; conditions: Escherichia coli, JM 109, E. coli JM109, MC9 glucose media
Procedure: Inhibition of biofilm formation by E. coli K12 [R1drd19], P. aeruginosa PAO1, and V harveyi BB120 by the addition of 10 μg/mL ursolic acid. For E. coli K12 [R1drd19], data were collected 16 hours after addition of ursolic acid to a 24 hour biofilm in LB medium; for P. aeruginosa PAO1, data were collected 18 hours after addition of ursolic acid with inoculation in LB medium plus 1% sodium citrate; and for V. harveyi BB120, data were collected 18 hours after addition of ursolic acid with inoculation in M9 medium. All biofilm mass readings at OD540 were normalized based on the reading of wild type without ursolic acid which was normalized to 1. One standard deviation is shown.
Example 1 was repeated, except asiatic acid was added with inoculation in E. coli JM109 in MC9 glucose media.

E. coli JM109 genes = assay: DNA microarray, genes induced by asiatic acid; assay type: cell-based; conditions: M9C glucose media
Procedure: The same amount of ethanol was supplemented to eliminate solvent effects. The cultures were grown to an OD600 of 0.9. The cells were centrifuged in a microcentrifuge for 15 seconds at 20,000×g in mini bead beater tubes (Biospec, Bartlesville, Okla.) that were cooled to -80° C. before sampling. The cell pellets were flash frozen in a dry ice-ethanol bath and stored at -80° C. until RNA isolation. To lyse the cells, 1.0 mL RLT buffer (Qiagen, Inc., Valencia, Calif.) and 0.2 mL 0.1 mm zirconia/silica beads (Biospec) were added to the frozen bead beater tubes containing the cell pellets. The tubes were closed tightly and beat for 30 seconds at the maximum speed in a mini bead beater (cat. no. 3110BX, Biospec). The total RNA was isolated by following the protocol of the RNeasy Mini Kit (Qiagen) including an on-column DNase digestion with RNase-free DNase I (Qiagen). OD260 was used to quantify the RNA yield. OD260/OD280 and […]/16S rRNA were measured using a 2100 Bioanalyzer (Agilent Technologies, Palo Alto, Calif.) to check the purity and integrity of RNA (RNeasy Mini handbook, Qiagen). The E. coli DNA microarrays were prepared as described previously by Wei, Y. et al (Journal of Bacteriology, 2001, 183 (2) p. 545-556). […] The double-strand PCR products were denatured in 50% dimethyl sulfoxide and spotted onto aminosilane slides (Full Moon Biosystems, Sunnyvale, Calif.) as probes to hybridize with the mRNA-derived cDNA samples. It has been shown that each array can detect 4228 of the 4290 E. coli ORFs. Each gene has two spots per slide. Briefly, the total RNA from the E. coli K12 samples grown with and without ursolic acid was first converted into labeled cDNA. […] The Cy3-labeled sample without ursolic acid and the Cy5-labeled ursolic acid sample (with 10 or 30 μg/mL ursolic acid) were hybridized on the first slide. Similarly, the Cy5-labeled sample without ursolic acid and the Cy3-labeled ursolic acid sample were hybridized on the second slide. Since each gene has two spots on a slide, the two hybridizations generated eight data points for each gene (four points for the sample without ursolic acid and four points for the ursolic acid sample). The microarray experiments with dye-swapping were repeated for both concentrations of ursolic acid. […] The arrays were rinsed with double-distilled water and were spun dry by centrifugation. Labeled cDNA (6 μg) was concentrated to 10 μl of total volume and was mixed with 10 μl of 4×cDNA hybridization solution (Full Moon Biosystems) and 20 μl of formamide (EM Science, Gibbstown, N.J.). The hybridization mix was heated to 95° C. for 2 min and was added to the DNA microarrays; each array was covered with a coverslip (Corning, Big Flats, N.Y.) and was incubated overnight at 37° C. for hybridization. When the hybridization was finished, the coverslips were removed in 1×SSC-0.1% SDS at room temperature, and the arrays were washed once for 5 min in 1×SSC-0.1% SDS at 40° C., twice for 10 min in 0.1×SSC-0.1% SDS at 40° C., and twice for 1 min in 0.1×SSC at 40° C. The arrays were quickly rinsed by dipping in room-temperature double-distilled water and were then spun dry by centrifugation. The hybridized slides were scanned with the Generation III Array Scanner (Molecular Dynamics Corp.). Readings at 570 and 670 nm was used to quantify the probes labeled with Cy3 and Cy5 separately. The signal was quantified with Array Vision 4.0 or 6.0 software (Imaging Research, St. Catherines, Ontario, Canada). […] P-values were calculated on log-transformed, normalized intensities. Including the p-value criterion ensures the reliability of the induced/repressed gene list. Normalization was relative to the median total fluorescent intensity per slide per channel. Example 3 was repeated, except asiatic acid ([…]) was added instead of ursolic acid.

C[C@H]1[C@H](C)CC[C@]2(C(=O)O)CC[C@]3(C)C(=CC[C@@H]4[C@@]5(C)C[C@@H](O)[C@H](O)[C@@](C)(CO)[C@@H]5CC[C@]43C)[C@H]12 [asiatic acid]
2.83: ER (expression ratio) gene b0829 (E. coli JM109 genes; 10 μg/mL asiatic acid) | ER (expression ratio) gene iIvG_1 (E. coli JM109 genes; 10 μg/mL asiatic acid) | ER (expression ratio) gene yicG (E. coli JM109 genes; 10 μg/mL asiatic acid) | ER (expression ratio) gene yedO (E. coli JM109 genes; 30 μg/mL asiatic acid) | ER (expression ratio) gene yicL (E. coli JM109 genes; 30 μg/mL asiatic acid)
4.29: ER (expression ratio) gene b2420 (E. coli JM109 genes; 10 μg/mL asiatic acid) | ER (expression ratio) gene cysI (E. coli JM109 genes; 10 μg/mL asiatic acid) | ER (expression ratio) gene cysP (E. coli JM109 genes; 10 μg/mL asiatic acid) | ER (expression ratio) gene cysB (E. coli JM109 genes; 30 μg/mL asiatic acid)
9.85: ER (expression ratio) gene nlpA (E. coli JM109 genes; 30 μg/mL asiatic acid) | ER (expression ratio) gene yjiD (E. coli JM109 genes; 30 μg/mL asiatic acid)
3.48: ER (expression ratio) gene cysA (E. coli JM109 genes; 30 μg/mL asiatic acid) | ER (expression ratio) gene cysK (E. coli JM109 genes; 30 μg/mL asiatic acid) | ER (expression ratio) gene iIvL (E. coli JM109 genes; 30 μg/mL asiatic acid)
6.50: ER (expression ratio) gene ybiK (E. coli JM109 genes; 10 μg/mL asiatic acid) | ER (expression ratio) gene yicL (E. coli JM109 genes; 10 μg/mL asiatic acid) | ER (expression ratio) gene cysD (E. coli JM109 genes; 30 μg/mL asiatic acid)
11.31: ER (expression ratio) gene cysN (E. coli JM109 genes; 10 μg/mL asiatic acid)
7.46: ER (expression ratio) gene yjiD (E. coli JM109 genes; 10 μg/mL asiatic acid) | ER (expression ratio) gene cysN (E. coli JM109 genes; 30 μg/mL asiatic acid)
2.30: ER (expression ratio) gene b2834 (E. coli JM109 genes; 10 μg/mL asiatic acid) | ER (expression ratio) gene bolA (E. coli JM109 genes; 10 μg/mL asiatic acid) | ER (expression ratio) gene iIvL (E. coli JM109 genes; 10 μg/mL asiatic acid) | ER (expression ratio) gene msrA (E. coli JM109 genes; 10 μg/mL asiatic acid) | ER (expression ratio) gene yaiB (E. coli JM109 genes; 10 μg/mL asiatic acid) | ER (expression ratio) gene b1729 (E. coli JM109 genes; 30 μg/mL asiatic acid) | ER (expression ratio) gene b1963 (E. coli JM109 genes; 30 μg/mL asiatic acid) | ER (expression ratio) gene b2332 (E. coli JM109 genes; 30 μg/mL asiatic acid) | ER (expression ratio) gene dgt (E. coli JM109 genes; 30 μg/mL asiatic acid) | ER (expression ratio) gene glgS (E. coli JM109 genes; 30 μg/mL asiatic acid) | ER (expression ratio) gene yeeD (E. coli JM109 genes; 30 μg/mL asiatic acid) | ER (expression ratio) gene yicG (E. coli JM109 genes; 30 μg/mL asiatic acid)
5.66: ER (expression ratio) gene ybiK (E. coli JM109 genes; 30 μg/mL asiatic acid)
6.96: ER (expression ratio) gene cysD (E. coli JM109 genes; 10 μg/mL asiatic acid) | ER (expression ratio) gene ygbE (E. coli JM109 genes; 10 μg/mL asiatic acid) | ER (expression ratio) gene cysC (E. coli JM109 genes; 30 μg/mL asiatic acid)
2.46: ER (expression ratio) gene b2531 (E. coli JM109 genes; 10 μg/mL asiatic acid) | ER (expression ratio) gene pssR (E. coli JM109 genes; 10 μg/mL asiatic acid) | ER (expression ratio) gene tauA (E. coli JM109 genes; 10 μg/mL asiatic acid) | ER (expression ratio) gene ybgR (E. coli JM109 genes; 10 μg/mL asiatic acid) | ER (expression ratio) gene b0829 (E. coli JM109 genes; 30 μg/mL asiatic acid) | ER (expression ratio) gene ybgR (E. coli JM109 genes; 30 μg/mL asiatic acid) | ER (expression ratio) gene yrbL (E. coli JM109 genes; 30 μg/mL asiatic acid)
3.03: ER (expression ratio) gene yciW (E. coli JM109 genes; 10 μg/mL asiatic acid) | ER (expression ratio) gene cysH (E. coli JM109 genes; 30 μg/mL asiatic acid) | ER (expression ratio) gene ftn (E. coli JM109 genes; 30 μg/mL asiatic acid)
2.14: ER (expression ratio) gene b1963 (E. coli JM109 genes; 10 μg/mL asiatic acid) | ER (expression ratio) gene b2332 (E. coli JM109 genes; 10 μg/mL asiatic acid) | ER (expression ratio) gene dgt (E. coli JM109 genes; 10 μg/mL asiatic acid) | ER (expression ratio) gene glgS (E. coli JM109 genes; 10 μg/mL asiatic acid) | ER (expression ratio) gene b2420 (E. coli JM109 genes; 30 μg/mL asiatic acid) | ER (expression ratio) gene b2531 (E. coli JM109 genes; 30 μg/mL asiatic acid) | ER (expression ratio) gene pssR (E. coli JM109 genes; 30 μg/mL asiatic acid) | ER (expression ratio) gene yeeE (E. coli JM109 genes; 30 μg/mL asiatic acid) | ER (expression ratio) gene yjaE (E. coli JM109 genes; 30 μg/mL asiatic acid)
3.25: ER (expression ratio) gene b2670 (E. coli JM109 genes; 10 μg/mL asiatic acid) | ER (expression ratio) gene ftn (E. coli JM109 genes; 10 μg/mL asiatic acid) | ER (expression ratio) gene yeeE (E. coli JM109 genes; 10 μg/mL asiatic acid) | ER (expression ratio) gene cysI (E. coli JM109 genes; 30 μg/mL asiatic acid) | ER (expression ratio) gene cysM (E. coli JM109 genes; 30 μg/mL asiatic acid) | ER (expression ratio) gene fliY (E. coli JM109 genes; 30 μg/mL asiatic acid)
5.28: ER (expression ratio) gene ygbE (E. coli JM109 genes; 30 μg/mL asiatic acid)
4.92: ER (expression ratio) gene cysU (E. coli JM109 genes; 10 μg/mL asiatic acid) | ER (expression ratio) gene cysP (E. coli JM109 genes; 30 μg/mL asiatic acid) | ER (expression ratio) gene cysU (E. coli JM109 genes; 30 μg/mL asiatic acid)
12.13: ER (expression ratio) gene sbp (E. coli JM109 genes; 30 μg/mL asiatic acid)
4.59: ER (expression ratio) gene cysH (E. coli JM109 genes; 10 μg/mL asiatic acid) | ER (expression ratio) gene cysK (E. coli JM109 genes; 10 μg/mL asiatic acid) | ER (expression ratio) gene cysW (E. coli JM109 genes; 10 μg/mL asiatic acid) | ER (expression ratio) gene yaeG (E. coli JM109 genes; 10 μg/mL asiatic acid)
2.00: ER (expression ratio) gene yjaE (E. coli JM109 genes; 10 μg/mL asiatic acid) | ER (expression ratio) gene b2834 (E. coli JM109 genes; 30 μg/mL asiatic acid) | ER (expression ratio) gene iIvG_1 (E. coli JM109 genes; 30 μg/mL asiatic acid) | ER (expression ratio) gene pstS (E. coli JM109 genes; 30 μg/mL asiatic acid) | ER (expression ratio) gene tauA (E. coli JM109 genes; 30 μg/mL asiatic acid)
3.73: ER (expression ratio) gene cysJ (E. coli JM109 genes; 10 μg/mL asiatic acid) | ER (expression ratio) gene cysM (E. coli JM109 genes; 10 μg/mL asiatic acid) | ER (expression ratio) gene yedO (E. coli JM109 genes; 10 μg/mL asiatic acid) | ER (expression ratio) gene yeeD (E. coli JM109 genes; 10 μg/mL asiatic acid) | ER (expression ratio) gene yciW (E. coli JM109 genes; 30 μg/mL asiatic acid)
6.06: ER (expression ratio) gene cysB (E. coli JM109 genes; 10 μg/mL asiatic acid)
~85%: inhibition at 15 µg/mL (E. coli JM109; 15 μg/ml)
~75%: inhibition at 5 µg/mL (E. coli JM109; 5 μg/ml)
4.00: ER (expression ratio) gene cysA (E. coli JM109 genes; 10 μg/mL asiatic acid) | ER (expression ratio) gene fliY (E. coli JM109 genes; 10 μg/mL asiatic acid) | ER (expression ratio) gene cysJ (E. coli JM109 genes; 30 μg/mL asiatic acid) | ER (expression ratio) gene cysW (E. coli JM109 genes; 30 μg/mL asiatic acid) | ER (expression ratio) gene yaeG (E. coli JM109 genes; 30 μg/mL asiatic acid)
18.38: ER (expression ratio) gene nlpA (E. coli JM109 genes; 10 μg/mL asiatic acid) | ER (expression ratio) gene sbp (E. coli JM109 genes; 10 μg/mL asiatic acid)
~80%: inhibition at 10 µg/mL (E. coli JM109; 10 μg/ml)
2.64: ER (expression ratio) gene b1729 (E. coli JM109 genes; 10 μg/mL asiatic acid) | ER (expression ratio) gene pstS (E. coli JM109 genes; 10 μg/mL asiatic acid) | ER (expression ratio) gene yrbL (E. coli JM109 genes; 10 μg/mL asiatic acid) | ER (expression ratio) gene b2670 (E. coli JM109 genes; 30 μg/mL asiatic acid) | ER (expression ratio) gene bolA (E. coli JM109 genes; 30 μg/mL asiatic acid) | ER (expression ratio) gene msrA (E. coli JM109 genes; 30 μg/mL asiatic acid) | ER (expression ratio) gene yaiB (E. coli JM109 genes; 30 μg/mL asiatic acid)
10.56: ER (expression ratio) gene cysC (E. coli JM109 genes; 10 μg/mL asiatic acid)
13.93: ER (expression ratio) gene cbl (E. coli JM109 genes; 10 μg/mL asiatic acid)
13.00: ER (expression ratio) gene cbl (E. coli JM109 genes; 30 μg/mL asiatic acid)
